# Literature values in US7803735B2, “Hydroconversion processes employing multi-metallic catalysts and method for making thereof” (Chevron U.S.A. Inc., priority 2007, dated 2010).
# Tested on: rats
# Details: single oral dose to rats; chelating agent (ligand) L
smiles,measurement,value
O=CC(=O)O [glyoxylic],LD50,3000 mg/kg
